These results are taken from patent USRE37410E, “Controlled local delivery of chemotherapeutic agents for treating solid tumors” (priority 1999, dated 2001).

Where two headings read alike, the source gives them in different places.

For data set [1] the following is noted: in vivo; cited from earlier work.
In a further data set the test system is U87. It counts as cell-based. Conditions: Homo sapiens, U-87 MG; continuous 6-8 days exposure; read-out: LD90 (the source's name). How it is done:
(§1) Cell culture. Tumor sensitivity to paclitaxel was measured by the clonogenic assay described by Rosenblum, et al., Cancer 41:2305-2314 (1978) and Salcman, et al., Neurosurgery 29:526-531 (1991) with rat glioma (9L, F98), human glioma (H80, U87, U373), and human medulloblastoma (D324) cell lines. Cells were grown and propagated in minimum essential medium (MEM) supplemented with 10% fetal bovine serum, L-glutamine, penicillin, and streptomycin and incubated at 37° C. in an atmosphere containing 5% CO2. At the start of each assay, 600 tumor cells in 2 ml of medium were plated on Falcon 6-well tissue-culture plates (Becton-Dickenson, Lincoln Park, N.J.). After incubating for 24 h, the medium was removed from the places and replaced with 2 ml of medium containing paclitaxel and 0.1% dimethylsulfoxide (DMSO). The treatment solutions were prepared as described by Roytta et al., Prostate 11:95-106 (1987). The paclitaxel treatment solution was then either replaced with fresh paclitaxel-free media containing 0.1% DMSO after 1 or 24 h or was left on the places for the 6- to 8-day incubation period. […] The colonies on each plate were counted and the result was expressed as a percentage of the colonies formed on control plates not exposed to paclitaxel. […] Graphs were prepared and analyzed using Cricket Graph v. […]

The subject of the next data set is H80. It counts as cell-based. Conditions: Homo sapiens; continuous 6-8 days exposure; read-out: LD90 (the source's name). The protocol:
as §1

Data set [2] has as its system 9L. The data set can be described thus: Intracranial local drug delivery by polymer implant in rat glioma model, median survival (Table 1 summary). Conditions: in vivo.
The conditions of data set [3]: maintenance of sufficient systemic levels; cited from earlier work.
The conditions of data set [4]: cell-culture medium; cited from earlier work.
Data set [5] deals with ovarian, breast, lung, and prostatic cancer and melanoma. Conditions: cited from earlier work.
The test system of data set [6] is 9L. It counts as cell-based. Conditions: Rattus norvegicus, read-out: LD90 (the source's name).
A further data set deals with U373. The data set can be described thus: cells. Conditions: Homo sapiens, U373 MG, read-out: ID90.

Consider `CC(=O)O[C@H]1C(=O)[C@@]2(C)[C@H]([C@H](OC(=O)c3ccccc3)[C@]3(O)C[C@H](OC(=O)[C@H](O)[C@@H](NC(=O)c4ccccc4)c4ccccc4)C(C)=C1C3(C)C)[C@]1(OC(C)=O)CO[C@@H]1C[C@@H]2O` [paclitaxel], for which the “penetration of intact blood-brain barrier” value in data set [1] was “penetrates the intact blood-brain barrier poorly, if at all”. The IC90 with U87 came to 9.1 nM; in the data set on H80, 19 nM; in the data set on 9L [6] (1 h, 1 h exposure), 890 nM; in the data set on 9L [6] (24 h, 24 h exposure), 100 nM; in the data set on U373 (1 h), 280 nM; in the data set with U373 (24 h) it was 29 nM. Moreover, the IC90 with U373 is 7.2 nM. Further, the “% increase survival” value with 9L [2] amounted to 215%. Further, the “Median survival in days, Rx group” value with 9L [2] is recorded as 61.5. In addition, in data set [3], the systemic toxicity entry is “severe, in some cases "life-threatening" toxicity”. The “hydrolysis to inactive compounds” value in data set [4] is listed as “less than 10%”. Further, the “concentrations cytotoxic in vitro” value in [5] is “nanomolecular concentrations”.
